Data as given in ChEMBL document CHEMBL4425117 (Bioorg Med Chem Lett, 2016).
Each block holds one compound with its values, some of them ahead of it.

Experiments:
[1] = biological target: T1, Endothelin-1 receptor (Homo sapiens, UniProt P25101); test: Antagonist activity at ETA receptor (unknown origin) in presence of ET1
T1 sequence (P25101 whole entry): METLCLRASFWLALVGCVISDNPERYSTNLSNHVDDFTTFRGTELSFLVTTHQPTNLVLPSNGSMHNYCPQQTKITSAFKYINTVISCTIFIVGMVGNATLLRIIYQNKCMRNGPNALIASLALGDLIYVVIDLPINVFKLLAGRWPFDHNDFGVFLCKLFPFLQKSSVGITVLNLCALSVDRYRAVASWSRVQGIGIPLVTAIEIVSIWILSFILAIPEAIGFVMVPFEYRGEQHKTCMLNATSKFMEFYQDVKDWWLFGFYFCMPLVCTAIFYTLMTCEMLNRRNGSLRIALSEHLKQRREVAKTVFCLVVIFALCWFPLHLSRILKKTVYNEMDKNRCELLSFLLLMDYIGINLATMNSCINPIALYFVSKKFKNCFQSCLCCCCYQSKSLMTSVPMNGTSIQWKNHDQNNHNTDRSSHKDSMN

[2] = biological target: T1, Endothelin-1 receptor; test: Displacement of 125I-ET1 from ETA receptor (unknown origin) expressed in CHO cells; format: cell-based
[3] = biological target: T2, Endothelin receptor type B (Homo sapiens, UniProt P24530); test: Displacement of radioligand from ETB receptor in human placenta cell membranes
T2 sequence (P24530 whole entry): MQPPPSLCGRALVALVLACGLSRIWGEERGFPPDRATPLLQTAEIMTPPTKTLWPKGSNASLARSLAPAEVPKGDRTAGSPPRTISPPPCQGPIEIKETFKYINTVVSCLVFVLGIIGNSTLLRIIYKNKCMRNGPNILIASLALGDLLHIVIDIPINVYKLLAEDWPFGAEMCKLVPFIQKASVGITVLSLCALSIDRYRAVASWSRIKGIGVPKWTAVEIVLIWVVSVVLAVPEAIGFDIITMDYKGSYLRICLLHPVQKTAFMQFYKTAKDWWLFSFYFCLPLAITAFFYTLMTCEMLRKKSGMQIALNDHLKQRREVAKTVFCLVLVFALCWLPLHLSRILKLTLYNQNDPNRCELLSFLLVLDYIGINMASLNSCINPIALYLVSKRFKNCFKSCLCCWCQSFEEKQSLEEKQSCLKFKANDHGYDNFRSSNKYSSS

[4] = biological target: T2, Endothelin receptor type B; test: Antagonist activity at ETB receptor (unknown origin) in presence of ET1
[5] = Oral bioavailability in rat at 15 mg/kg; format: ADME, organism-based; conditions: in vivo
[6] = Oral bioavailability in dog at 15 mg/kg; format: ADME, organism-based, Canis lupus familiaris; conditions: in vivo
[7] = biological target: T1, Endothelin-1 receptor; test: Antagonist activity at human ETA receptor expressed in CHO cells in presence of ET1; format: cell-based
[8] = physchem
Description: Dissociation constant, pKa of the compound

[9] = biological target: T3, Endothelin receptor type B (Rattus norvegicus, UniProt P21451); test: Displacement of [125I]-ET1 from ETB receptor in rat cerebellum after 3 hrs by scintillation counting method; format: tissue-based
T3 sequence (P21451 whole entry): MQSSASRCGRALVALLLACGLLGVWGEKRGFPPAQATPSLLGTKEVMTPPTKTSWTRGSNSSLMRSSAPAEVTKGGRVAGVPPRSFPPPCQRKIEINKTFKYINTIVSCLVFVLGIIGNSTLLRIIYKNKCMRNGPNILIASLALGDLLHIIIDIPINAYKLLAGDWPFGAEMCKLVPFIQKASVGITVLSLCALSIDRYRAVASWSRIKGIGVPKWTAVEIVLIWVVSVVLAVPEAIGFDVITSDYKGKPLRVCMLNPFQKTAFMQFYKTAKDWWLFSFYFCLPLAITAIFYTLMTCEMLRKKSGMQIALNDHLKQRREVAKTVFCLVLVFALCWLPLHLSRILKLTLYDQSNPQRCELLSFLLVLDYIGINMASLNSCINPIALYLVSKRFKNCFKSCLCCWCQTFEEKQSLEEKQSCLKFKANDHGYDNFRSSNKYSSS

[10] = biological target: T3, Endothelin receptor type B; test: Displacement of 125I-ET1 from rat aortic ring ETB receptor
[11] = biological target: T1, Endothelin-1 receptor; test: Displacement of 125I-ET1 from human smooth muscle ETA receptor expressed in fall armyworm sf9 cell membranes
[12] = biological target: T1, Endothelin-1 receptor; test: Displacement of [125I]-ET-1 from human ETA receptor expressed in CHO cell membranes after 2 hrs by scintillation counting
[13] = Oral bioavailability in dog; format: ADME, organism-based, Canis lupus familiaris; conditions: in vivo
[14] = biological target: T1, Endothelin-1 receptor; test: Displacement of 125I-ET1 from human placenta cell membrane ETA receptor expressed in Baculovirus-infected insect cells
[15] = biological target: T1, Endothelin-1 receptor; test: Antagonist activity at ETA receptor (unknown origin)
[16] = biological target: T2, Endothelin receptor type B; test: Antagonist activity at ETB receptor (unknown origin)

Compound: CCCNS(=O)(=O)Nc1ncnc(OCCOc2ncc(Br)cn2)c1-c1ccc(Br)cc1
IC50 [7]: 3.4 nM
pKa [8]: 6.2

Compound: Cc1noc(NS(=O)(=O)c2ccccc2-c2ccc(-c3ncco3)cc2)c1C
Ki [9]: 1900 nM

Compound: COc1cccc(Oc2c(NS(=O)(=O)c3ccc(C(C)(C)C)cc3)ncnc2OCCO)c1
IC50 [10]: 1000 nM
IC50 [11]: 220 nM

Compound: CCc1cc(C2=C(C(=O)O)N(c3ccccc3C(F)(F)F)S(=O)(=O)c3ccccc32)cc2c1OCO2 [FANDOSENTAN]
IC50 [12]: 0.5 nM
bioavailability [13]: 100%

The next lines start with the values.

IC50 [1]: 3.1 nM
IC50 [2]: 1.4 nM
IC50 [3]: 600 nM
IC50 [4]: 1200 nM
Compound: COc1ccccc1Oc1c(NS(=O)(=O)c2ccc(C)cn2)nc(-c2ccncc2)nc1OC [AVOSENTAN]

bioavailability [5]: 60 to 100%
bioavailability [6]: 60 to 100%
Compound: Cc1cc2c(cc1CC(=O)c1sccc1S(=O)(=O)Nc1onc(C)c1Cl)OCO2 [SITAXENTAN]

IC50 [14]: 50 nM
IC50 [15]: 26 nM
IC50 [16]: 914 nM
Compound: COc1ccccc1Oc1c(NS(=O)(=O)c2ccc(C(C)C)cc2)nc(C(F)(F)F)nc1OCCO
